# Measured values taken from PubChem BioAssay AID330 (DTP/NCI, 2004).
# Values joined by “and” are separate entries in the source; they are usually repeats but may differ in a detail not shown here. Equal values may be shown once. Inconclusive results and toxic doses are left out.
# Tested on: P388 leukemia ip, CD2F1 mice, survival T/C
# Assay: NCI In Vivo Anticancer Drug Screen. Data for tumor model P388 Leukemia (intraperitoneal) in CD2F1 (CDF1) mice
# Conditions: endpoint: median survival time, higher = longer survival
# In short: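 Mice carrying the transplanted tumor received test compound or vehicle. Survival was recorded in each group, and the value is the treated-group measurement divided by that of the vehicle-treated control group.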
# [1] = dose: 50.0 mg/kg/injection, schedule: Q01DX005 (ip), vehicle: Klucel (hydroxypropylcellulose) (HPC)
# [2] = dose: 100.0 mg/kg/injection, schedule: Q01DX005 (ip), vehicle: Klucel (hydroxypropylcellulose) (HPC)
# [3] = dose: 200.0 mg/kg/injection, schedule: Q01DX005 (ip), vehicle: Klucel (hydroxypropylcellulose) (HPC)
# [4] = dose: 60.0 mg/kg/injection, schedule: Q01DX005 (ip), vehicle: saline with Tween-80
# [5] = dose: 120.0 mg/kg/injection, schedule: Q01DX005 (ip), vehicle: saline with Tween-80
smiles,measurement,setting,value
Cc1ccc2nc(C[n+]3cccc4ccccc43)ccc2c1,T/C,"dose: 0.38 mg/kg/injection, schedule: Q01DX005 (ip), vehicle: saline",107 % of control
same,T/C,"dose: 0.75 mg/kg/injection, schedule: Q01DX005 (ip), vehicle: saline with Tween-80",113 % of control
same,T/C,"dose: 0.75 mg/kg/injection, schedule: Q01DX005 (ip), vehicle: saline",115 % of control and 122 % of control
same,T/C,"dose: 1.5 mg/kg/injection, schedule: Q01DX005 (ip), vehicle: saline with Tween-80",115 % of control
same,T/C,"dose: 1.5 mg/kg/injection, schedule: Q01DX005 (ip), vehicle: saline",116 % of control
same,T/C,"dose: 3.0 mg/kg/injection, schedule: Q01DX005 (ip), vehicle: saline with Tween-80",100 % of control
same,T/C,"dose: 3.0 mg/kg/injection, schedule: Q01DX005 (ip), vehicle: saline",114 % of control and 116 % of control
same,T/C,"dose: 3.12 mg/kg/injection, schedule: Q01DX005 (ip), vehicle: saline with Tween-80",117 % of control
O=C(O)CCCCCCCCCOC(C[N+](=O)[O-])C(Cl)(Cl)Cl (stereo not given),T/C,"dose: 50.0 mg/kg/injection, schedule: Q01DX009 (ip), vehicle: other",102 % of control
same,T/C,"dose: 100.0 mg/kg/injection, schedule: Q01DX009 (ip), vehicle: other",103 % of control
same,T/C,"dose: 200.0 mg/kg/injection, schedule: Q01DX009 (ip), vehicle: other",113 % of control
Clc1cccc(O[Si]23OCCN(CCO2)CCO3)c1,T/C,[1],109 % of control
same,T/C,[2],106 % of control
same,T/C,[3],102 % of control
COc1ccc2c(c1O)C1=CC=CCC13CCN(C)C3C2 (stereo not given),T/C,"dose: 100.0 mg/kg/injection, schedule: Q04DX002 (ip), vehicle: saline with Tween-80",103 % of control
same,T/C,"dose: 200.0 mg/kg/injection, schedule: Q04DX002 (ip), vehicle: saline with Tween-80",105 % of control
same,T/C,"dose: 400.0 mg/kg/injection, schedule: Q04DX002 (ip), vehicle: saline with Tween-80",108 % of control
O=C1CC[C@@H](NC(=O)Cc2ccccc2)C(=O)N1,T/C,"dose: 7.5 mg/kg/injection, schedule: Q01DX005 (ip), vehicle: saline with Tween-80",103 % of control
same,T/C,"dose: 15.0 mg/kg/injection, schedule: Q01DX005 (ip), vehicle: saline with Tween-80",97 % of control
same,T/C,"dose: 30.0 mg/kg/injection, schedule: Q01DX005 (ip), vehicle: saline with Tween-80",98 % of control and 101 % of control
same,T/C,"dose: 31.25 mg/kg/injection, schedule: Q01DX005 (ip), vehicle: saline with Tween-80",102 % of control
same,T/C,[4],94 % of control and 96 % of control
same,T/C,"dose: 62.5 mg/kg/injection, schedule: Q01DX005 (ip), vehicle: saline with Tween-80",101 % of control
same,T/C,[5],88 % of control
same,T/C,"dose: 125.0 mg/kg/injection, schedule: Q01DX005 (ip), vehicle: saline with Tween-80",99 % of control and 93 % of control
same,T/C,"dose: 250.0 mg/kg/injection, schedule: Q01DX005 (ip), vehicle: saline with Tween-80",90 % of control
same,T/C,"dose: 500.0 mg/kg/injection, schedule: Q01DX005 (ip), vehicle: saline with Tween-80",89 % of control
CCC(C)C1NC(=O)C(NC(=O)c2c3nc4c(C(=O)NC5C(=O)NC(C(C)CC)C(=O)N6CCCC6C(=O)N(C)CC(=O)N(C)C(C(C)C)C(=O)OC5C)ccc(C)c4oc-3c(C)c(=O)c2Cl)C(C)OC(=O)C(C(C)C)N(C)C(=O)CN(C)C(=O)C2CCCN2C1=O (stereo not given),T/C,"dose: 0.05 mg/kg/injection, schedule: Q01DX009 (ip), vehicle: water",92 % of control
same,T/C,"dose: 0.1 mg/kg/injection, schedule: Q01DX009 (ip), vehicle: water",96 % of control
same,T/C,"dose: 0.2 mg/kg/injection, schedule: Q01DX009 (ip), vehicle: water",99 % of control
same,T/C,"dose: 0.4 mg/kg/injection, schedule: Q01DX009 (ip), vehicle: water",102 % of control and 111 % of control
same,T/C,"dose: 0.8 mg/kg/injection, schedule: Q01DX009 (ip), vehicle: water",118 % of control
same,T/C,"dose: 3.2 mg/kg/injection, schedule: Q01DX009 (ip), vehicle: water",155 % of control
same,T/C,"dose: 6.4 mg/kg/injection, schedule: Q01DX009 (ip), vehicle: water",174 % of control
N#CC1(c2ccccc2)C(c2ccccc2)=CC(=C2C(=O)NC(=O)N(c3ccccc3)C2=O)C=C1c1ccccc1 (stereo not given),T/C,[1],100 % of control
same,T/C,[2],104 % of control
same,T/C,[3],98 % of control
N/N=C1\c2ccccc2-c2cccc(N)c21,T/C,[4],102 % of control
same,T/C,[5],112 % of control
same,T/C,"dose: 240.0 mg/kg/injection, schedule: Q01DX005 (ip), vehicle: saline with Tween-80",99 % of control
